Patent EP2792360A1, “(1aR,12bS)-8-cyclohexyl-11-fluoro-N-((1-methylcyclopropyl)sulfonyl)-1a-((3-methyl-3,8-diazabicyclo[3.2.1]oct-8-yl)carbonyl)-1,1a,2,2b-tetrahydrocyclopropa[d]indolo[2,1-a][2]benzazepine-5-carboxamide for use in treating HCV” (IP Gesellschaft für Management mbH, priority 2013, dated 2014)

Experiments:
uric acid in urine = experiment: Multiple dose study of TS dispersion, 14 days (Example 6): uric acid excretion in urine; type: in vivo, healthy subjects and elderly subjects; settings: 24 hour urine, Days 1, 6, 14, 16; returns to baseline by Day 16
Protocol: Example 6 - Multiple dose study: a double-blind, randomized, placebo-controlled, study in healthy subjects and elderly subjects: Multiple oral doses of 4-[2-(5-amino-1 H-pyrazol-4-yl)-4-chlorophenoxy]-5-chloro-2-fluoro-N-(1,3-thiazol-4-yl)benzenesulfonamide TS dispersion for oral administration, and placebo, were investigated for 14 days, as follows: • healthy subjects, 300 mg twice daily (BID,) • healthy subjects, 450 mg BI D, and • elderly subjects, 300 mg BID.
Subjects were fasted overnight prior to the morning doses and for at least 2 hours prior to the evening doses. Food was withheld for at least 2 hours postdose. A total of 49 subjects were enrolled in the study of which 39 received 4-[2-(5-amino-1 H-pyrazol-4-yl)-4-chlorophenoxy]-5-chloro-2-fluoro-N-(1,3-thiazol-4-yl)benzenesulfonamide TS and 10 received placebo. […]
Concentrations of uric acid in blood decreased following dosing with 4-[2-(5-amino-1 H-pyrazol-4-yl)-4-chlorophenoxy]-5-chloro-2-fluoro-N-(1,3-thiazol-4-yl)benzenesulfonamide. All subjects had blood uric acid values above the LLN on Day 1. […] Uric acid was also measured in urine collected over 24 hours prior to dosing on Day 1, and then on Days 6, 14 and 16. The percent excreted fraction of uric acid in urine was calculated and analyzed with a linear mixed effects model.

blood uric acid = experiment: Multiple dose study of TS dispersion, 14 days (Example 6): blood uric acid level; type: in vivo, healthy subjects and elderly subjects
Protocol: Example 3 - Preparation of dispersions for oral administration: (a) Using the tosylate salt of 4-r2-(5-Amino-1 H-pyrazol-4-yl)-4-chlorophenoxyl-5- chloro-2-fluoro-N-(1,3-thiazol-4-yl)benzenesulfonamide: Methylcellulose vehicle (0.5% w/v) was prepared as follows. Water for irrigation (600 ml.) was heated in a beaker to between 80°C and 90°C. Methylcellulose (5 g) powder was added, with stirring, until the powder had fully dispersed. The dispersion was then transferred into an ice bath and cooled rapidly whilst adding chilled water for irrigation (400 ml.) to give a clear solution. The dispersion for oral administration was prepared by weighing the required quantity of 4-[2-(5-amino-1 H-pyrazol-4-yl)-4-chlorophenoxy]-5-chloro-2-fluoro-N- (1,3-thiazol-4-yl)benzenesulfonamide tosylate (from 10mg to 2400mg) into an appropriately sized glass amber dosing bottle and adding a volume of vehicle (0.5% (w/v) methylcellulose). The volume of vehicle added was dependant on dose: 15 ml. for doses of drug in the range 10 mg to < 30 mg; and 50 ml. for doses of drug in the range 30 mg to 2400 mg, so that the drug concentration was in the range 0.6 to 50 mg/mL. The dispersion was stored at 2 to 8°C and administered within 72 hours directly from the dosing containers. After administration the glass dosing bottle was rinsed with two approximate equal aliquots of drinking water such that the total volume administered, including dosing volume, was 240 ml_. (b) Using the SDD of 4-[2-(5-Amino-1 H-pyrazol-4-yl)-4-chlorophenoxyl-5-chloro-2- fluoro-N-(1,3-thiazol-4-yl)benzenesulfonamide: Methylcellulose vehicle 0.5% (w/v) was prepared using the procedure set out in Example 3(a) above. The dispersion for oral administration was prepared by weighing the required quantity of 4-[2-(5-amino-1 H-pyrazol-4-yl)-4-chlorophenoxy]-5-chloro-2-fluoro-N- (1,3-thiazol-4-yl)benzenesulfonamide SDD into an appropriately sized glass amber dosing bottle and adding a volume of vehicle (0.5% (w/v) Methylcellulose). The volume of vehicle added was dependent on dose: 20 ml. to 100 ml. over the dose range 10 mg to 2400 mg, so that the drug concentration was in the range 0.6 to 50 mg/mL. The dispersion was stored at 2 to 8°C and administered within 72 hours directly from the dosing containers. After administration the glass dosing bottle was rinsed with two approximate equal aliquots of drinking water such that the total volume administered, including dosing volume, was 240 ml_. […] Uric acid measurements were performed using a commercial colorimetric assay kit (Beckman Coulter). […]

[1] = system: genotype lb HCV replicon (Huh-7); experiment: microbe, parasite or virus in culture; settings: Hepatitis C virus, Huh-7, 72 h
Protocol: The protein was expressed with an 18 amino acid C-terminal truncation to enhance the solubility. The E. coli competent cell line BL21(DE3) was used for expression of the protein. […] The cultures were cooled to 20 °C and induced with 1 mM IPTG. […] After addition of the lysis buffer, frozen cell pellets were resuspended using a tissue homogenizer. To reduce the viscosity of the sample, aliquots of the lysate were sonicated on ice using a microtip attached to a Branson sonicator. […] The protein was purified using two sequential chromatography steps: Heparin sepharose CL-6B and polyU sepharose 4B. […] Each column was eluted with a NaCl gradient which varied in length from 5-50 column volumes depending on the column type. […] The enzyme was aliquoted and stored at -80 °C. […] Unbound primer was removed after centrifugation. […] After incubating for at least 15 minutes, plates were read on an Amersham LEADseeker multimodality imaging system. IC50 values for compounds were determined using ten different [I]. […] Cell lines. […] These cells were maintained in Dulbecco's modified Eagle medium (DMEM) containing 10% FBS, 100 U/mL penicillin/streptomycin and 1.0 mg/mL G418. […]

Row | Compound | excreted fraction of uric acid in urine (uric acid in urine) | day on which median blood uric acid concentrations fell below LLN (blood uric acid; 450 mg BID) | median blood uric acid concentration relative to LLN (blood uric acid; all cohorts (300 mg and 450 mg BID), Day 6) | Concentrations of uric acid in blood (blood uric acid; following dosing, given as TS dispersion 300 mg or 450 mg BID) | time after cessation of dosing until blood uric acid returned to above the LLN for all subjects (blood uric acid; i.e. by Day 16) | EC50 [1]
1 | Nc1[nH]ncc1-c1cc(Cl)ccc1Oc1cc(F)c(S(=O)(=O)Nc2cscn2)cc1Cl [4-[2-(5-amino-1H-pyrazol-4-yl)-4-chlorophenoxy]-5-chloro-2-fluoro-N-(1,3-thiazol-4-yl)benzenesulfonamide] | increases during dosing | Day 3 | below the LLN | decreased | ≤ 2 days | 
2 | CN1CC2CCC(C1)N2C(=O)[C@]12C[C@H]1c1cc(F)ccc1-c1c(C3CCCCC3)c3ccc(C(=O)NS(=O)(=O)C4(C)CC4)cc3n1C2 [Compound 2, (1aR,12bS)-8-cyclohexyl-11-fluoro-N-((1-methylcyclopropyl)sulfonyl)-1a-((3-methyl-3,8-diazabicyclo[3.2.1]oct-8-yl)carbonyl)-1,1a,2,12b-tetrahydrocyclopropa[d]indolo[2,1-a][2]benzazepine-5-carboxamide] |  |  |  |  |  | 7 nM
